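Compound exposure: 48 hours, 5 concentrations, 96-well plates. Abbreviation: GI50, concentration required for 50% inhibition of growth. TGI denotes the concentration required for complete inhibition of growth.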
Tests used:
Test in all cases: inhibition of tumour cell growth, NCI panel, 48 h
EKVX NSCLC = system: EKVX NSCLC
COLO 205 colon = system: COLO 205 colon
SW-620 colon = system: SW-620 colon
SNB-19 CNS = system: SNB-19 CNS
MALME-3M melanoma = system: MALME-3M melanoma
PC-3 prostate = system: PC-3 prostate
SK-OV-3 ovarian = system: SK-OV-3 ovarian
HS 578T breast = system: HS 578T breast
SN12C renal = system: SN12C renal
UO-31 renal = system: UO-31 renal
T-47D breast = system: T-47D breast
HOP-62 NSCLC = system: HOP-62 NSCLC
U251 CNS = system: U251 CNS
NCI-H23 lung = system: NCI-H23 lung
HL-60(TB) leukemia = system: HL-60(TB) leukemia
OVCAR-3 ovarian = system: OVCAR-3 ovarian
NCI-H522 lung = system: NCI-H522 lung
NCI/ADR-RES ovarian = system: NCI/ADR-RES ovarian
RPMI-8226 leukemia = system: RPMI-8226 leukemia
UACC-62 melanoma = system: UACC-62 melanoma
OVCAR-5 ovarian = system: OVCAR-5 ovarian
SR leukemia = system: SR leukemia
DU-145 prostate = system: DU-145 prostate
MCF7 breast = system: MCF7 breast
ACHN renal = system: ACHN renal
786-0 renal = system: 786-0 renal
SF-295 CNS = system: SF-295 CNS
K-562 leukemia = system: K-562 leukemia
HOP-92 NSCLC = system: HOP-92 NSCLC
NCI-H226 lung = system: NCI-H226 lung
UACC-257 melanoma = system: UACC-257 melanoma
OVCAR-4 ovarian = system: OVCAR-4 ovarian
SF-539 CNS = system: SF-539 CNS
NCI-H460 lung = system: NCI-H460 lung
SK-MEL-2 melanoma = system: SK-MEL-2 melanoma
OVCAR-8 ovarian = system: OVCAR-8 ovarian
RXF 393 renal = system: RXF 393 renal
CCRF-CEM leukemia = system: CCRF-CEM leukemia
MDA-MB-231 breast = system: MDA-MB-231 breast
IGROV1 ovarian = system: IGROV1 ovarian
HCT-15 colon = system: HCT-15 colon
MDA-MB-435 = system: MDA-MB-435
HCC-2998 colon = system: HCC-2998 colon
SK-MEL-28 melanoma = system: SK-MEL-28 melanoma
TK-10 renal = system: TK-10 renal
HT29 colon = system: HT29 colon
MOLT-4 leukemia = system: MOLT-4 leukemia
SNB-75 CNS = system: SNB-75 CNS
HCT-116 colon = system: HCT-116 colon
BT-549 breast = system: BT-549 breast
M14 melanoma = system: M14 melanoma
LOX IMVI melanoma = system: LOX IMVI melanoma
KM12 colon = system: KM12 colon
SF-268 CNS = system: SF-268 CNS
SK-MEL-5 melanoma = system: SK-MEL-5 melanoma
A549 NSCLC = system: A549 NSCLC
CAKI-1 renal = system: CAKI-1 renal

Structure (SMILES): COc1cnc2c(c1)C(=O)c1c-2n(CCCBr)c(=O)c2cc([N+](=O)[O-])ccc12
- GI50 (EKVX NSCLC): 1270 nM
- TGI (EKVX NSCLC): 10.7 µM
- GI50 (COLO 205 colon): 259 nM
- TGI (COLO 205 colon): 2410 nM
- GI50 (SW-620 colon): 60.7 nM
- TGI (SW-620 colon): 5.13 µM
- GI50 (SNB-19 CNS): 282 nM
- TGI (SNB-19 CNS): 18.7 µM
- GI50 (MALME-3M melanoma): 352 nM
- TGI (MALME-3M melanoma): 2020 nM
- GI50 (PC-3 prostate): 314 nM
- TGI (PC-3 prostate): 11.7 µM
- GI50 (SK-OV-3 ovarian): 312 nM
- TGI (SK-OV-3 ovarian): 7.74 µM
- GI50 (HS 578T breast): 2550 nM
- TGI (HS 578T breast): 40.1 µM
- GI50 (SN12C renal): 269 nM
- TGI (SN12C renal): 3.48 µM
- GI50 (UO-31 renal): 56.6 nM
- TGI (UO-31 renal): 1510 nM
- GI50 (T-47D breast): 233 nM
- TGI (T-47D breast): 3.19 µM
- GI50 (HOP-62 NSCLC): 57.8 nM
- TGI (HOP-62 NSCLC): 2600 nM
- GI50 (U251 CNS): 101 nM
- TGI (U251 CNS): 3.98 µM
- GI50 (NCI-H23 lung): 218 nM
- TGI (NCI-H23 lung): 4.27 µM
- GI50 (HL-60(TB) leukemia): 310 nM
- TGI (HL-60(TB) leukemia): 53 µM
- GI50 (OVCAR-3 ovarian): 248 nM
- TGI (OVCAR-3 ovarian): 1050 nM
- GI50 (NCI-H522 lung): 433 nM
- TGI (NCI-H522 lung): 8.46 µM
- GI50 (NCI/ADR-RES ovarian): 187 nM
- TGI (NCI/ADR-RES ovarian): 12.4 µM
- GI50 (RPMI-8226 leukemia): 301 nM
- TGI (RPMI-8226 leukemia): 4.7 µM
- GI50 (UACC-62 melanoma): 82.1 nM
- TGI (UACC-62 melanoma): 1480 nM
- GI50 (OVCAR-5 ovarian): 1190 nM
- TGI (OVCAR-5 ovarian): 10.2 µM
- GI50 (SR leukemia): 37.8 nM
- TGI (SR leukemia): > 100 µM
- GI50 (DU-145 prostate): 200 nM
- TGI (DU-145 prostate): 9.09 µM
- GI50 (MCF7 breast): 45.9 nM
- TGI (MCF7 breast): 1200 nM
- GI50 (ACHN renal): 87.8 nM
- TGI (ACHN renal): 3.14 µM
- GI50 (786-0 renal): 223 nM
- TGI (786-0 renal): 716 nM
- GI50 (SF-295 CNS): 70.9 nM
- TGI (SF-295 CNS): 852 nM
- GI50 (K-562 leukemia): 255 nM
- TGI (K-562 leukemia): > 100 µM
- GI50 (HOP-92 NSCLC): 1770 nM
- TGI (HOP-92 NSCLC): 13.7 µM
- GI50 (NCI-H226 lung): 499 nM
- TGI (NCI-H226 lung): 3.75 µM
- GI50 (UACC-257 melanoma): 597 nM
- TGI (UACC-257 melanoma): 4.39 µM
- GI50 (OVCAR-4 ovarian): 686 nM
- TGI (OVCAR-4 ovarian): 9.17 µM
- GI50 (SF-539 CNS): 279 nM
- TGI (SF-539 CNS): 1070 nM
- GI50 (NCI-H460 lung): 40.7 nM
- TGI (NCI-H460 lung): 699 nM
- GI50 (SK-MEL-2 melanoma): 2040 nM
- TGI (SK-MEL-2 melanoma): 6.31 µM
- GI50 (OVCAR-8 ovarian): 364 nM
- TGI (OVCAR-8 ovarian): 7.21 µM
- GI50 (RXF 393 renal): 364 nM
- TGI (RXF 393 renal): 2430 nM
- GI50 (CCRF-CEM leukemia): 57.5 nM
- TGI (CCRF-CEM leukemia): 17.8 µM
- GI50 (MDA-MB-231 breast): 2580 nM
- TGI (MDA-MB-231 breast): 31.5 µM
- GI50 (IGROV1 ovarian): 163 nM
- TGI (IGROV1 ovarian): 2350 nM
- GI50 (HCT-15 colon): 350 nM
- TGI (HCT-15 colon): 15.3 µM
- GI50 (MDA-MB-435): 474 nM
- TGI (MDA-MB-435): 5.04 µM
- GI50 (HCC-2998 colon): 386 nM
- TGI (HCC-2998 colon): 10.2 µM
- GI50 (SK-MEL-28 melanoma): 1520 nM
- TGI (SK-MEL-28 melanoma): 12 µM
- GI50 (TK-10 renal): 2000 nM
- TGI (TK-10 renal): 16.3 µM
- GI50 (HT29 colon): 202 nM
- TGI (HT29 colon): 23.1 µM
- GI50 (MOLT-4 leukemia): 52 nM
- TGI (MOLT-4 leukemia): 10.2 µM
- GI50 (SNB-75 CNS): 430 nM
- TGI (SNB-75 CNS): 13.8 µM
- GI50 (HCT-116 colon): 84.9 nM
- TGI (HCT-116 colon): 1700 nM
- GI50 (BT-549 breast): 519 nM
- TGI (BT-549 breast): 9.89 µM
- GI50 (M14 melanoma): 140 nM
- TGI (M14 melanoma): 2120 nM
- GI50 (LOX IMVI melanoma): 75 nM
- TGI (LOX IMVI melanoma): 549 nM
- GI50 (KM12 colon): 375 nM
- TGI (KM12 colon): 8.77 µM
- GI50 (SF-268 CNS): 158 nM
- TGI (SF-268 CNS): 9.3 µM
- GI50 (SK-MEL-5 melanoma): 224 nM
- TGI (SK-MEL-5 melanoma): 533 nM
- GI50 (A549 NSCLC): 347 nM
- TGI (A549 NSCLC): 6.85 µM
- GI50 (CAKI-1 renal): 45.9 nM
- TGI (CAKI-1 renal): 3.05 µM
